One test deals with human STING (HAQ) (Homo sapiens (Human), UniProt Q86WV6, G230A/H232R/R293Q). The experiment in a line: Differential scanning fluorimetry (DSF), huSTING (HAQ). The test is classed as binding. To be noted: compound 100 μM, 2 μM protein, Tm with ligand minus Tm of protein alone (1% DMSO). The procedure:
(§1) Data were analyzed using “Meltdown analysis” protocol described by Rosa (2015).
(In general: In DSF a fluorescence change marks the thermal transition of the protein.)

Another test has as its target WT human STING isoform (Homo sapiens (Human), UniProt Q86WV6, H232R). The experiment in a line: THP-1-Dual KI-hSTING-R232 reporter cell line assay. The class given is cell-based. The following applies: 24 h incubation, luminescence, normalized to ML RR-S2 CDA 40 μM; read-out: EC50 THP-1 Dual KI-hSTING-R232 cells. The procedure:
(§2) THP-1 STING Lucia ISG cells (InvivoGen #thpl-isg) were cultured in RPMI-1640 containing 2 mM L-glutamine, 25 mM HEPES, 100 μg/mL Normocin (InvivoGen) and 10% heat-inactivated FBS. Cells were seeded at a density of 7×10^5 cells/mL, maintained at 37° C./5% CO2, and passaged every 3-4 days. Selection pressure was maintained by the addition of 100 μg/mL Zeocin every second passage.
(§3) Assay conditions: cells were harvested and resuspended at a concentration of 5×10^5 cells/mL in fresh growth media. Of this cell preparation 20 μL per well was dispensed into 384 well cell culture plates (Greiner, #781098X) and incubated at 37° C./5% CO2 for 2 hours.
(§4) Concentration Response Curves (commonly 11 doses) were prepared by 2.5 fold serial dilution starting from 10 mM compound stock solution in DMSO. Compound dilutions were transferred into the cell culture plates using a pintool (0.1 μL transfer), control wells were matched for DMSO. Positive control wells received ML RR-S2 CDA (Med Chem Express HY12885B) in 5 μL of media to a final concentration of 40 μM. All other wells received additional 5 μL of media only to equalize volume. The plates were incubated for 24 h at 37° C./5% CO2.
(§5) For the detection step, QUANTI-Luc (InvivoGen #rep-qlc1) was prepared according to manufacturer's instruction and 10 μL were added per well to the culture plates. Plates were shaken for ten seconds on an orbital shaker and left in the dark at room temperature for two minutes, before luminescence was read on a Perkin Elmer Envision plate reader.
(§6) Data analysis: Luminescence raw data was normalized % activity relative to the signal of the positive control wells and negative control wells which were not treated with compound. The following formula was used to calculate normalized % activity from raw signals: % activity=(sample−negative)/(positive−negative)
(§7) The THP-1 STING Lucia ISG cell EC50 provides an assessment of activity at the human HAQ isoform of STING. For assessing compound activity against the WT human STING isoform, an equivalent method was conducted where the cells used were THP-1-Dual KI-hSTING-R232 (InvivoGen #thpd-r232).

The next test deals with human STING (WT) (Homo sapiens (Human), UniProt Q86WV6, H232R). The experiment in a line: Differential scanning fluorimetry (DSF), huSTING (WT). The following applies: compound 100 μM, 2 μM protein, Tm with ligand minus Tm of protein alone (1% DMSO). The test is classed as binding. Here is the method: as §1
human STING (WT), sequence (Q86WV6 149-345 H232R): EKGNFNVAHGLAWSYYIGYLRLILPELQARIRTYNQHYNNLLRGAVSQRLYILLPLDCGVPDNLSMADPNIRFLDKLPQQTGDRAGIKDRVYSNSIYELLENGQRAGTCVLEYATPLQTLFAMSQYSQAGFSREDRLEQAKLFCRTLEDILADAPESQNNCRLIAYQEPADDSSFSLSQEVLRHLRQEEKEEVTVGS
Test [1] concerns the target human HAQ isoform of STING (Homo sapiens (Human), UniProt Q86WV6, G230A/H232R/R293Q/R71H). Put plainly: THP-1 STING Lucia ISG reporter cell line assay. The test is classed as cell-based. The following applies: 24 h incubation, luminescence, normalized to ML RR-S2 CDA 40 μM; read-out: EC50 THP-I STING Lucia ISG cells. The procedure: as §2, §3, §4, §5, §6, §7

pEC50: −log10 of the molar value.

WT human STING isoform, sequence (Q86WV6 whole entry H232R, canonical isoform): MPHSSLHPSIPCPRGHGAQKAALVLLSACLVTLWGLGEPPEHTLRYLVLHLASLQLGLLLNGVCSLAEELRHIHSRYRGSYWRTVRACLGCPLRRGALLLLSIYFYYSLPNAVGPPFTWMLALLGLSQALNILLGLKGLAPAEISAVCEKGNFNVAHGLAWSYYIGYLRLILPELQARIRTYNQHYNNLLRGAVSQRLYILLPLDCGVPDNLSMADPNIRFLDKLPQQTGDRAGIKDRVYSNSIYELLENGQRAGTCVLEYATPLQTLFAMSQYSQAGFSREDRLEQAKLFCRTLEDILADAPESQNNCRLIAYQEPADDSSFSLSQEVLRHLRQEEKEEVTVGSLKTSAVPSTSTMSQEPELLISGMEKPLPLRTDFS
human HAQ isoform of STING, sequence (Q86WV6 whole entry R71H/G230A/H232R/R293Q, canonical isoform): as the sequence (Q86WV6 whole entry H232R, canonical isoform) above, with R71H, G230A, R293Q counted along it
human STING (HAQ), sequence (Q86WV6 149-345 G230A/H232R/R293Q): as the sequence (Q86WV6 149-345 H232R) above, with G82A, R145Q counted along it

By pEC50 is commonly meant −log10 of the EC50, conventionally taken in molar units. Take `NC(=O)c1ccc2c(c1)nc(-c1c(C(=O)O)sc3cccc(Cl)c13)n2CCn1c(-c2c(C(=O)O)sc3cccc(Cl)c23)nc2cc(C(N)=O)ccc21` (single isomer, unassigned) [Example 1.2, 3,3′-(Ethane-1,2-diylbis(5-carbamoyl-1H-benzo[d]imidazole-1,2-diyl))bis(4-chlorobenzo[b]thiophene-2-carboxylic acid)]: the “DSF huSTING (HAQ) ΔTm” value at human STING (HAQ) is 0.13 °C. Also, the pEC50 was 5.20 at WT human STING isoform and 4.85 in test [1]. The “DSF huSTING (WT) ΔTm” value on human STING (WT) was −7.14 °C.

As usually defined, the ΔTm is the shift of the melting midpoint relative to a reference. Consider `NC(=O)c1ccc2c(c1)nc(-c1c(C(=O)O)sc3cccc(C(F)(F)F)c13)n2CCn1c(-c2c(C(=O)O)sc3cccc(C(F)(F)F)c23)nc2cc(C(N)=O)ccc21` (single isomer, unassigned) [Example 19.1, 3,3′-(Ethane-1,2-diylbis(5-carbamoyl-1H-benzo[d]imidazole-1,2-diyl))bis(4-(trifluoromethyl)benzo[b]thiophene-2-carboxylic acid)], for which the ΔTm at 100 µM on human STING (HAQ) is 21.4 °C. Moreover, the values for the pEC50 (on WT human STING isoform; in test [1]) were 6.71 and 6.72, respectively. Moreover, the “DSF huSTING (WT) ΔTm” value at human STING (WT) turned out to be 9.38 °C.

As to `NC(=O)c1ccc2c(c1)nc(-c1c(C(=O)O)sc3cccc(C(F)(F)F)c13)n2CCn1c(-c2c(C(=O)O)sc3cccc(C(F)(F)F)c23)nc2cc(C(N)=O)ccc21` (single isomer, unassigned) [Example 19.2, 3,3′-(Ethane-1,2-diylbis(5-carbamoyl-1H-benzo[d]imidazole-1,2-diyl))bis(4-(trifluoromethyl)benzo[b]thiophene-2-carboxylic acid)], on human STING (HAQ), the “DSF huSTING (HAQ) ΔTm” value turned out to be 12.26 °C. For the same compound, the pEC50 at WT human STING isoform is 5.44; in test [1], 5.59. Also, the “DSF huSTING (WT) ΔTm” value on human STING (WT) came to 2.74 °C.

In the case of `NC(=O)c1ccc2c(c1)nc(-c1c(C(=O)O)sc3c(F)ccc(Br)c13)n2CCn1c(-c2c(C(=O)O)sc3c(F)ccc(Br)c23)nc2cc(C(N)=O)ccc21` (single isomer, unassigned) [Example 20.2, 3,3′-(Ethane-1,2-diylbis(5-carbamoyl-1H-benzo[d]imidazole-1,2-diyl))bis(4-bromo-7-fluorobenzo[b]thiophene-2-carboxylic acid)], the “DSF huSTING (HAQ) ΔTm” value at human STING (HAQ) worked out at 0.44 °C. Also, the pEC50 at WT human STING isoform is 5.24; in test [1], 4.83. Besides, at human STING (WT), the “DSF huSTING (WT) ΔTm” value is −4.12 °C.

As to `COc1c(C(N)=O)ccc2c1nc(-c1c(C(=O)O)sc3cccc(Cl)c13)n2CCn1c(-c2c(C(=O)O)sc3cccc(Cl)c23)nc2c(OC)c(C(N)=O)ccc21` (single isomer, unassigned) [Example 22.1, 3,3′-(Ethane-1,2-diylbis(5-carbamoyl-4-methoxy-1H-benzo[d]imidazole-1,2-diyl))bis(4-chlorobenzo[b]thiophene-2-carboxylic acid)], the ΔTm at 100 µM at human STING (HAQ) was found to be 45.5 °C; on human STING (WT), 37.7 °C. For the same compound, the figures for the pEC50 (at WT human STING isoform; in test [1]) were 6.89 and 6.59, respectively.

Turning to `COc1c(C(N)=O)ccc2c1nc(-c1c(C(=O)O)sc3cccc(Cl)c13)n2CCn1c(-c2c(C(=O)O)sc3cccc(Cl)c23)nc2c(OC)c(C(N)=O)ccc21` (single isomer, unassigned) [Example 22.2, 3,3′-(Ethane-1,2-diylbis(5-carbamoyl-4-methoxy-1H-benzo[d]imidazole-1,2-diyl))bis(4-chlorobenzo[b]thiophene-2-carboxylic acid)], on human STING (HAQ), the “DSF huSTING (HAQ) ΔTm” value turned out to be 45.31 °C. In addition, the figures for the pEC50 (on WT human STING isoform; in test [1]) were 6.30 and 5.99, respectively. Also, the “DSF huSTING (WT) ΔTm” value on human STING (WT) was 35.685 °C.

In the case of `CCOC(=O)c1sc2ccnc(OC)c2c1-c1nc2cc(C(N)=O)ccc2n1CCn1c(-c2c(C(=O)OCC)sc3ccnc(OC)c23)nc2cc(C(N)=O)ccc21` [Example 6, Diethyl 3,3′-(ethane-1,2-diylbis(5-carbamoyl-1H-benzo[d]imidazole-1,2-diyl))bis(4-methoxythieno[3,2-c]pyridine-2-carboxylate)], the pEC50 (on WT human STING isoform; in test [1]) was under 4.40 each time.

For the compound `CCOC(=O)c1sc2ccccc2c1-c1nc2cc(C(N)=O)ccc2n1CCn1c(-c2c(C(=O)OCC)sc3ccccc23)nc2cc(C(N)=O)ccc21` [Example 8, Diethyl 3,3′-(ethane-1,2-diylbis(5-carbamoyl-1H-benzo[d]imidazole-1,2-diyl))bis(benzo[b]thiophene-2-carboxylate)], the pEC50 (on WT human STING isoform; in test [1]) was under 4.40 in each case.

For `CCOC(=O)c1sc2cccc(Br)c2c1-c1nc2cc(C(N)=O)ccc2n1CCn1c(-c2c(C(=O)OCC)sc3cccc(Br)c23)nc2cc(C(N)=O)ccc21` [Example 10, Diethyl 3,3′-(ethane-1,2-diylbis(5-carbamoyl-1H-benzo[d]imidazole-1,2-diyl))bis(4-bromobenzo[b]thiophene-2-carboxylate)], the pEC50 was 4.90 at WT human STING isoform and 4.70 in test [1].

Turning to `CCOC(=O)c1sc2c(F)ccc(OC)c2c1-c1nc2cc(C(N)=O)ccc2n1CCn1c(-c2c(C(=O)OCC)sc3c(F)ccc(OC)c23)nc2cc(C(N)=O)ccc21` [Example 12, Diethyl 3,3′-(ethane-1,2-diylbis(5-carbamoyl-1H-benzo[d]imidazole-1,2-diyl))bis(7-fluoro-4-methoxybenzo[b]thiophene-2-carboxylate)], the pEC50 on WT human STING isoform is 5.04; in test [1] it was 5.29.

Take `CCOC(=O)c1sc2cccc(C)c2c1-c1nc2cc(C(N)=O)ccc2n1CCn1c(-c2c(C(=O)OCC)sc3cccc(C)c23)nc2cc(C(N)=O)ccc21` [Example 14, Diethyl 3,3′-(1,1′-(ethane-1,2-diyl)bis(5-carbamoyl-1H-benzo[d]imidazole-2,1-diyl))bis(4-methylbenzo[b]thiophene-2-carboxylate)]: the pEC50 (at WT human STING isoform; in test [1]) was under 4.40 in each case.

For the compound `CCOC(=O)c1sc2cccc(C#N)c2c1-c1nc2cc(C(N)=O)ccc2n1CCn1c(-c2c(C(=O)OCC)sc3cccc(C#N)c23)nc2cc(C(N)=O)ccc21` [Example 16, Diethyl 3,3′-(ethane-1,2-diylbis(5-carbamoyl-1H-benzo[d]imidazole-1,2-diyl))bis(4-cyanobenzo[b]thiophene-2-carboxylate)], the pEC50 (on WT human STING isoform; in test [1]) was under 4.40 in each case.

`CCOC(=O)c1sc2cccc(C(F)(F)F)c2c1-c1nc2cc(C(N)=O)ccc2n1CCn1c(-c2c(C(=O)OCC)sc3cccc(C(F)(F)F)c23)nc2cc(C(N)=O)ccc21` [Example 18, Diethyl 3,3′-(ethane-1,2-diylbis(5-carbamoyl-1H-benzo[d]imidazole-1,2-diyl))bis(4-(trifluoromethyl)benzo[b]thiophene-2-carboxylate)]: the negative logarithm of the EC50 (pEC50) at WT human STING isoform is under 4.40; in test [1], 5.43.

Turning to `CCOC(=O)c1sc2cccc(Cl)c2c1-c1nc2c(OC)c(C(N)=O)ccc2n1CCn1c(-c2c(C(=O)OCC)sc3cccc(Cl)c23)nc2c(OC)c(C(N)=O)ccc21` [Example 21, Diethyl 3,3′-(ethane-1,2-diylbis(5-carbamoyl-4-methoxy-1H-benzo[d]imidazole-1,2-diyl))bis(4-chlorobenzo[b]thiophene-2-carboxylate)], the ΔTm at 100 µM was 4.33 °C at human STING (HAQ) and 3.41 °C at human STING (WT). In addition, the negative-log EC50 (pEC50) at WT human STING isoform was 8.15; in test [1] it was 7.72.

On to `CCOC(=O)c1sc2cccc(OCC)c2c1-c1nc2cc(C(N)=O)ccc2n1CCn1c(-c2c(C(=O)OCC)sc3cccc(OCC)c23)nc2cc(C(N)=O)ccc21` [Example 23, Diethyl 3,3′-(ethane-1,2-diylbis(5-carbamoyl-1H-benzo[d]imidazole-1,2-diyl))bis(4-ethoxybenzo[b]thiophene-2-carboxylate)], for which the negative logarithm of the EC50 (pEC50) (at WT human STING isoform; in test [1]) was under 4.40 throughout.

For the compound `CCOC(=O)c1sc2c(F)ccc(Cl)c2c1-c1nc2cc(C(N)=O)ccc2n1CCn1c(-c2c(C(=O)OCC)sc3c(F)ccc(Cl)c23)nc2cc(C(N)=O)ccc21` [Example A2, Diethyl 3,3′-(ethane-1,2-diylbis(5-carbamoyl-1H-benzo[d]imidazole-1,2-diyl))bis(4-chloro-7-fluorobenzo[b]thiophene-2-carboxylate)], the pEC50 at WT human STING isoform was 5.50; in test [1], 5.02.
